In ChEMBL document CHEMBL3091350, “Synthesis and evaluation of the antimalarial, anticancer, and caspase 3 activities of tetraoxane dimers” (Bioorg Med Chem, 2013):
Activity calls are given as the source filed them. The calls are words filed in the database; no cut-off is given here.

Columns and labels:
[1] = Cytotoxicity against human HT29-AK cells assessed as cell viability after 24 hrs by MTT assay; assay type: functional, cell-based
Plasmodium falciparum [2] = assay: Antimalarial activity against chloroquine-sensitive Plasmodium falciparum 3D7 assessed as parasite growth inhibition after 48 hrs by SYBR green-1 dye-based fluorescence assay; assay type: functional, organism-based; conditions: 3D7, 48 h
HL-60 [3] = assay: Cytotoxicity against human HL60 cells assessed as cell viability after 24 hrs by MTT assay; assay type: functional, cell-based; conditions: HL-60, 24 h
[4] = Therapeutic index, ratio of IC50 for human KB cells to IC50 for chloroquine-resistant Plasmodium falciparum K1; assay type: cell-based; conditions: read-out: Ratio IC50
Plasmodium falciparum [5] = assay: Antimalarial activity against chloroquine-resistant Plasmodium falciparum K1 assessed as parasite growth inhibition after 48 hrs by SYBR green-1 dye-based fluorescence assay; assay type: functional, organism-based; conditions: K1, 48 h
HL-60 [6] = assay: Induction of apoptosis in human HL60 cells assessed as activation of caspase-3 activity at 10.1 to 30.3 uM after 24 hrs by flow cytometric analysis; assay type: functional, cell-based
KB = assay: Cytotoxicity against human KB cells assessed as cell viability after 24 hrs by MTT assay; assay type: functional, cell-based
Plasmodium falciparum [7] = assay: Antimalarial activity against chloroquine-sensitive Plasmodium falciparum 3D7; assay type: functional, organism-based
Plasmodium berghei [8] = assay: Antimalarial activity against Plasmodium berghei ANKA infected in mouse assessed as inhibition of parasitemia at 3 mg/kg, po administered for 3 days post-infection measured on day 4 by Giemsa staining relative to control; assay type: functional
Plasmodium berghei [9] = assay: Antimalarial activity against Plasmodium berghei ANKA infected in mouse assessed as inhibition of parasitemia at 10 mg/kg, po administered for 3 days post-infection measured on day 4 by Giemsa staining relative to control; assay type: functional
Plasmodium berghei [10] = assay: Antimalarial activity against Plasmodium berghei ANKA infected in mouse assessed as inhibition of parasitemia at 1 mg/kg, po administered for 3 days post-infection measured on day 4 by Giemsa staining relative to control; assay type: functional
Plasmodium berghei [11] = assay: Antimalarial activity against Plasmodium berghei ANKA infected in mouse assessed as inhibition of parasitemia at 30 mg/kg, po administered for 3 days post-infection measured on day 4 by Giemsa staining relative to control; assay type: functional
Plasmodium berghei [12] = assay: Antimalarial activity against Plasmodium berghei ANKA infected in po dosed mouse assessed as inhibition of parasitemia administered for 3 days post-infection measured on day 4 by Giemsa staining; assay type: functional
HL-60 [13] = assay: Induction of apoptosis in human HL60 cells assessed as activation of caspase-3 activity at 9.4 to 28.2 uM after 24 hrs by flow cytometric analysis; assay type: functional, cell-based
HL-60 [14] = assay: Induction of apoptosis in human HL60 cells assessed as activation of caspase-3 activity at 0.2 to 0.6 uM after 24 hrs by flow cytometric analysis; assay type: functional, cell-based

Row | SMILES | IC50 [1] | IC50 (Plasmodium falciparum [2]) | IC50 (HL-60 [3]) | selectivity ratio [4] | IC50 (Plasmodium falciparum [5]) | IC50 (KB) | further results
1 | O=C(CC1CCC2(CC1)OOC1(OO2)C2CC3CC(C2)CC1C3)Nc1ccc(NC(=O)CC2CCC3(CC2)OOC2(OO3)C3CC4CC(C3)CC2C4)cc1 (stereo unspecified) | 77600 nM | 58.4 nM | > 100000 nM | – | – | – | –
2 | O=C(CC1CCC2(CC1)OOC1(CCCCC1)OO2)NCCCNC(=O)CC1CCC2(CC1)OOC1(CCCCC1)OO2 | – | 21.3 nM | – | – | – | – | –
3 | O=C(CC1CCC2(CC1)OOC1(OO2)C2CC3CC(C2)CC1C3)NCCCNC(=O)CC1CCC2(CC1)OOC1(OO2)C2CC3CC(C2)CC1C3 (stereo unspecified) | 22900 nM | 4.7 nM | 20200 nM | 2530 | 24.6 nM | 62100 nM | Activity (HL-60 [6]): Active
4 | O=C(CC1CCC2(CC1)OOC1(OO2)C2CC3CC(C2)CC1C3)NCCNC(=O)CC1CCC2(CC1)OOC1(OO2)C2CC3CC(C2)CC1C3 (stereo unspecified) | – | 16.9 nM | – | 7040 | 8.9 nM | 62700 nM | –
5 | CN1CCN(C2CCN(C(=O)CC3CCC4(CC3)OOC3(OO4)C4CC5CC(C4)CC3C5)CC2)CC1 (stereo unspecified) | – | – | – | – | – | – | IC50 (Plasmodium falciparum [7]): 0.9 nM
6 | CC1(CCC(=O)Nc2cccc(N)c2)OOC2(CCCCC2)OO1 | 75800 nM | 102 nM | 31200 nM | – | – | – | –
7 | O=C(CC1CCC2(CC1)OOC1(OO2)C2CC3CC(C2)CC1C3)Nc1cccc(NC(=O)CC2CCC3(CC2)OOC2(OO3)C3CC4CC(C3)CC2C4)c1 (stereo unspecified) | 92500 nM | 57.2 nM | > 100000 nM | 1320 | 102 nM | 134000 nM | –
8 | CC1(CCC(=O)NCCCN2CCN(CCCNC(=O)CCC3(C)OOC4(CCCCC4)OO3)CC2)OOC2(CCCCC2)OO1 (stereo unspecified) | – | 47.5 nM | – | 40.8 | 612 nM | 25000 nM | inhibition in vivo at 3 mg/kg (Plasmodium berghei [8]): 22.3%; inhibition in vivo at 10 mg/kg (Plasmodium berghei [9]): 21.4%; inhibition in vivo at 1 mg/kg (Plasmodium berghei [10]): 2.1%; inhibition in vivo at 30 mg/kg (Plasmodium berghei [11]): 33.2%; ED50 (Plasmodium berghei [12]): > 30 mg/kg
9 | O=C(CC1CCC2(CC1)OOC1(OO2)C2CC3CC(C2)CC1C3)NCCCCNC(=O)CC1CCC2(CC1)OOC1(OO2)C2CC3CC(C2)CC1C3 (stereo unspecified) | – | 11.2 nM | – | 1870 | 2.7 nM | 5040 nM | inhibition in vivo at 3 mg/kg (Plasmodium berghei [8]): 27.5%; inhibition in vivo at 10 mg/kg (Plasmodium berghei [9]): 49.6%; inhibition in vivo at 1 mg/kg (Plasmodium berghei [10]): 22.1%; inhibition in vivo at 30 mg/kg (Plasmodium berghei [11]): 54.8%; ED50 (Plasmodium berghei [12]): 16.1 mg/kg
10 | O=C(CC1CCC2(CC1)OOC1(OO2)C2CC3CC(C2)CC1C3)NCc1cccc(CNC(=O)CC2CCC3(CC2)OOC2(OO3)C3CC4CC(C3)CC2C4)c1 (stereo unspecified) | 90200 nM | 4 nM | 18800 nM | – | – | – | Activity (HL-60 [13]): Active
11 | O=C(CC1CCC2(CC1)OOC1(CCCCC1)OO2)NCc1cccc(CNC(=O)CC2CCC3(CC2)OOC2(CCCCC2)OO3)c1 | – | 38.6 nM | – | – | – | – | –
12 | CCN(CC)CCCC(C)Nc1ccnc2cc(Cl)ccc12 (stereo unspecified) [CHLOROQUINE] | – | – | – | – | – | 97700 nM | –
13 | O=C(CC1CCC2(CC1)OOC1(CCCCC1)OO2)NCCCN1CCN(CCCNC(=O)CC2CCC3(CC2)OOC2(CCCCC2)OO3)CC1 | – | 47.1 nM | – | – | – | – | inhibition in vivo at 3 mg/kg (Plasmodium berghei [8]): 46.1%; inhibition in vivo at 10 mg/kg (Plasmodium berghei [9]): 54.3%; inhibition in vivo at 1 mg/kg (Plasmodium berghei [10]): 29.9%; inhibition in vivo at 30 mg/kg (Plasmodium berghei [11]): 63.9%; ED50 (Plasmodium berghei [12]): 6.4 mg/kg
14 | O=C(CC1CCC2(CC1)OOC1(OO2)C2CC3CC(C2)CC1C3)NCCCN1CCN(CCCNC(=O)CC2CCC3(CC2)OOC2(OO3)C3CC4CC(C3)CC2C4)CC1 (stereo unspecified) | – | 3.5 nM | – | – | – | – | inhibition in vivo at 3 mg/kg (Plasmodium berghei [8]): 43.2%; inhibition in vivo at 10 mg/kg (Plasmodium berghei [9]): 46.2%; inhibition in vivo at 1 mg/kg (Plasmodium berghei [10]): 36.1%; inhibition in vivo at 30 mg/kg (Plasmodium berghei [11]): 64.5%; ED50 (Plasmodium berghei [12]): 7.7 mg/kg
15 | C[C@H]1[C@H](OC(=O)CCC(=O)O)O[C@@H]2O[C@@]3(C)CC[C@H]4[C@H](C)CC[C@@H]1[C@@]24OO3 [ARTESUNATE] | 38800 nM | 1.6 nM | 2000 nM | – | – | – | inhibition in vivo at 3 mg/kg (Plasmodium berghei [8]): 62.4%; inhibition in vivo at 10 mg/kg (Plasmodium berghei [9]): 95.2%; inhibition in vivo at 1 mg/kg (Plasmodium berghei [10]): 38.5%; inhibition in vivo at 30 mg/kg (Plasmodium berghei [11]): 99.7%; ED50 (Plasmodium berghei [12]): 1.6 mg/kg
16 | C[C@H]1[C@@H](O)O[C@@H]2O[C@@]3(C)CC[C@H]4[C@H](C)CC[C@@H]1[C@@]24OO3 [ARTENIMOL] | 66100 nM | 3.5 nM | 400 nM | – | – | – | Activity (HL-60 [14]): Active
17 | COc1cc([C@@H]2c3cc4c(cc3[C@H](O)[C@H]3COC(=O)[C@H]23)OCO4)cc(OC)c1OC [PODOFILOX] | – | – | – | – | – | 11.7 nM | –
18 | CC1(CCC(=O)NCc2cccc(CNC(=O)CCC3(C)OOC4(CCCCC4)OO3)c2)OOC2(CCCCC2)OO1 (stereo unspecified) | 32800 nM | 416 nM | 34300 nM | 452 | 136 nM | 63100 nM | –
19 | O=C(CC1CCC2(CC1)OOC1(CCCCC1)OO2)NCCCCNC(=O)CC1CCC2(CC1)OOC1(CCCCC1)OO2 | – | 28.9 nM | – | – | – | – | –
